The values below come from patent US11795165B2, “Tetrahydro-benzoazepine glycosidase inhibitors” (Asceneuron SA, priority 2018, dated 2023).

SMILES strings stand for the structures.

Chain of His-Tagged hOGA (human O-GlcNAcase) (O60502 whole entry): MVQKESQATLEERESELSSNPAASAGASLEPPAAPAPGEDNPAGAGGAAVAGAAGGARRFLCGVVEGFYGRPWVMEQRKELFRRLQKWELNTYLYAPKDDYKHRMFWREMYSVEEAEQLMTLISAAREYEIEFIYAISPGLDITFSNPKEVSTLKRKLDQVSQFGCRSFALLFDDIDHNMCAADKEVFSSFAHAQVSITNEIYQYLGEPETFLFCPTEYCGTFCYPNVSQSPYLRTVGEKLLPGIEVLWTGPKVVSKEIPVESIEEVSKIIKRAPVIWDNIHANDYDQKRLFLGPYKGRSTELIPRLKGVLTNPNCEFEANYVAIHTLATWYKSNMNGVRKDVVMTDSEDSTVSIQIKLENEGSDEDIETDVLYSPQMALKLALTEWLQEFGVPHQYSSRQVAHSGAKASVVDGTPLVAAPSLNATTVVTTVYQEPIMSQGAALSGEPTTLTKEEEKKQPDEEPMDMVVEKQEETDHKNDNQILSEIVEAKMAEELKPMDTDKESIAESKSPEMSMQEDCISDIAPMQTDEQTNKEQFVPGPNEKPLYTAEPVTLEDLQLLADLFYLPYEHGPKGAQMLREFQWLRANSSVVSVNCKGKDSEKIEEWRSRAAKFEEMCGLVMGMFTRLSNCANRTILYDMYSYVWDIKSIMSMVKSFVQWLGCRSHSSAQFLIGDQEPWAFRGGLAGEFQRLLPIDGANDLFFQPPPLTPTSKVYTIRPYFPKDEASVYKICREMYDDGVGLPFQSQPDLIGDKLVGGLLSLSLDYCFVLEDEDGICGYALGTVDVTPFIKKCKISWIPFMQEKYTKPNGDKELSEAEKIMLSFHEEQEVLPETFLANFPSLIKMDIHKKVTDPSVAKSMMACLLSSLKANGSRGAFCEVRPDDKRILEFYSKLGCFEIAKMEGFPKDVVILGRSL

This assay addresses His-Tagged hOGA (human O-GlcNAcase) (Homo sapiens (Human), UniProt O60502). The experiment in a line: Human O-GlcNAcase enzyme inhibition assay (OGA enzyme inhibition assay). The assay is classed as biochemical. The settings on record: His-Tagged hOGA 20 nM, FL-GlcNAc 10 μM, 60 min at room temperature, pH 6.5; activity classes. On the procedure: Example B01: Human O-GlcNAcase Enzyme Inhibition Assay
5 μl of the appropriate concentration of a solution of inhibitor in McIlvaine's Buffer (pH 6.5) in 2% DMSO (for a dose response curve calculation) is added into each well of a 384-well plate (Greiner, 781900). Then, 20 nM of His-Tagged hOGA and 10 μM of FL-GlcNAc (Fluorescein mono-beta-D-(2-deoxy-2-N-acetyl) glucopyranoside; Marker Gene Technologies Inc, M1485) were added to the 384-well plate for a final volume of 20 μl. After incubation for 60 min at room temperature, the reaction was terminated by the addition of 10 μL of stop buffer (200 mM glycine, pH 10.75). The level of fluorescence (Δexc 485 nm; (Δemm 520 nm) was read on a PHERAstar machine. The amount of fluorescence measured was plotted against the concentration of inhibitor to produce a sigmoidal dose response curve to calculate an IC50. All individual data was corrected by subtraction of the background (Thiamet 3 uM=100% inhibition) whilst 0.5% DMSO was considered as the control value (no inhibition).
The IC50 is the concentration needed to halve the response being measured. Low values mean greater potency in that assay, high ones weaker potency in that assay. For `CC(c1ccc2scnc2c1)N1CCCc2ncc(NS(=O)(=O)C3CC3)cc2C1` (racemic) [Example 121], the half-maximal inhibitory concentration (IC50) lay within 200 to 1000 nM.

The molecule `CC(=O)Nc1cnc2c(c1)CCN(C(C)c1ccc3scnc3c1)CC2` (racemic) [Example 92] gave an IC50 of under 50 nM.

`CC(c1ccc2scnc2c1)N1CCc2ccc(C#N)cc2CC1` (racemic) [Example 16, 3-(1-(benzo[d]thiazol-5-yl)ethyl)-2,3,4,5-tetrahydro-1H-benzo[d]azepine-7-carbonitrile] yielded an IC50 of under 50 nM.

As to `CC(c1ccc2scnc2c1)N1CCc2cc(S(C)(=O)=O)cnc2CC1` (racemic) [Example 51], the IC50 was under 50 nM.

As for `COc1ccc2c(c1)CCN(C(C)c1ccc3nsnc3c1)CC2` (stereo not drawn) [Example 1, 5-(1-(7-methoxy-1,2,4,5-tetrahydro-3H-benzo[d]azepin-3-yl)ethyl)benzo[c][1,2,5]thiadiazole], the IC50 was under 50 nM.

In turn, `Cc1cc(Oc2ccc3c(c2)CCN(C(C)c2ccc4scnc4c2)CC3)nc(C)n1` (racemic) [Example 62] came in with an IC50 of under 50 nM.

In turn, `CC(c1ccc2scnc2c1)N1CCc2ccc(S(C)(=N)=O)cc2CC1` (racemic) [Example 37] displayed an IC50 of under 50 nM.

The molecule `CC(c1ccc2scnc2c1)N1CCc2cc(S(C)(=N)=O)cnc2CC1` (racemic) [Example 52] displayed an IC50 of under 50 nM.

As to `COc1ccc2c(c1)CCN(C(C)c1ccc3nsnc3c1)CC2` (single isomer, unassigned) [Example 3], the IC50 was in the range of 1000 to 10000 nM.
